Test results taken from PMC12006963, “Application of Deuterium in an M1 Positive Allosteric Modulator Back-Up Program: The Discovery of VU6045422” (ACS Chemical Neuroscience, 2025).

Columns and labels:
Histamine H1 = Histamine H1 (Homo sapiens, UniProt P35367); experiment: Eurofins radioligand binding
[1] = Rat oral dose escalation PK study; type: in vivo; conditions: for AUC(0-t) / Cmax: Sprague-Dawley, plasma, rat, oral
Procedure: page 9: Brain plasma concentration ratio (Kp) was calculated by dividing brain concentration by plasma concentration for each animal. Unbound brain to unbound plasma concentration ratio (Kp,uu) is calculated using the following formula: Kp,uu = (Brain ng/g x brain fu)/(plasma ng/ml x plasma fu). Pharmacokinetic profiles in rats following oral single escalating doses Single escalating oral dosing in Sprague-Dawley rats was performed at Frontage Laboratories according to their non-GLP Standard Operating Procedure and IACUC protocols. […] At different times, arterial blood was collected from a femoral artery catheter, and compound concentration was determined in plasma by LC-MS/MS following their non-GLP protocol. PK parameters were determined using Phoenix WinNonlin software (version 6.3). In-vitro determination of blood-brain barrier penetration potential Blood-brain barrier penetration was determined using MDR1-MDCK cell monolayers by Absorption Systems, following their protocol. In short, compounds were incubated at […] final concentration on one side of the cell monolayer for 2 hours. Compounds concentration on either side of the monolayer was determined by LC-MS/MS and apparent permeability and efflux ratio were determined as described in Wang, Q. et al.1 Behavioral Manifestations of Seizure Activity To evaluate induction of behavioral manifestation of seizure activity, C57Bl/6 mice received administration of vehicle or 100 mg/kg M1 PAM 5. Compound was formulated in 30% Captisol (pH 7.0) at a concentration of 10 mg/mL and injected i.p. at 10 ml/kg (n = 4). Animals were monitored continuously and scored for behavioral manifestations of seizure activity at 5, 15, 30 min, and 1 h. Behavioral manifestations of seizures were scored using a modified Racine scoring system. Briefly, a score of 0 represents no behavior alterations; score 1, immobility, mouth and facial movements, or facial clonus; score 2, head nodding, tail extension; score 3, forelimb clonus, repetitive movements; score 4, rearing and tonic clonic seizure; and score 5, continuous rearing and falling, severe generalized tonic clonic seizure. Novel Object Recognition Task S9

[2] = system: 68 GPCRs, ion channels, and transporters; experiment: Eurofins lead profiling screen, whole panel; type: binding; conditions: 10 μM; significant means >50%
Dopamine D1 = Dopamine D1 (Homo sapiens, UniProt P21728); experiment: Eurofins radioligand binding
Neuropeptide Y Y1 = Neuropeptide Y Y1 (Homo sapiens, UniProt P25929); experiment: Eurofins radioligand binding
Purinergic P2X = experiment: Eurofins radioligand binding; design: species or system Rat
seizure activity = experiment: Behavioral manifestations of seizure activity (modified Racine score); type: in vivo, C57Bl/6 mice; conditions: 100 mg/kg IP in mice; modified Racine scale 0-5
Procedure: page 9: Brain plasma concentration ratio (Kp) was calculated by dividing brain concentration by plasma concentration for each animal. Unbound brain to unbound plasma concentration ratio (Kp,uu) is calculated using the following formula: Kp,uu = (Brain ng/g x brain fu)/(plasma ng/ml x plasma fu). Pharmacokinetic profiles in rats following oral single escalating doses Single escalating oral dosing in Sprague-Dawley rats was performed at Frontage Laboratories according to their non-GLP Standard Operating Procedure and IACUC protocols. In short, compounds were formulated in 10% Tween 80 in water and dosed at 10 mg/kg. At different times, arterial blood was collected from a femoral artery catheter, and compound concentration was determined in plasma by LC-MS/MS following their non-GLP protocol. PK parameters were determined using Phoenix WinNonlin software (version 6.3). In-vitro determination of blood-brain barrier penetration potential Blood-brain barrier penetration was determined using MDR1-MDCK cell monolayers by Absorption Systems, following their protocol. In short, compounds were incubated at […] final concentration on one side of the cell monolayer for 2 hours. […] Animals were monitored continuously and scored for behavioral manifestations of seizure activity at 5, 15, 30 min, and 1 h. Behavioral manifestations of seizures were scored using a modified Racine scoring system. […]

Histamine H2 = Histamine H2 (Homo sapiens, UniProt P25021); experiment: Eurofins radioligand binding
Adrenergic β1 = Adrenergic β1 (Homo sapiens, UniProt P08588); experiment: Eurofins radioligand binding
[3] = system: Calcium Channel L-Type, Dihydropyridine; experiment: Eurofins radioligand binding; design: species or system Rat
Opiate κ (OP2, KOP) = Opiate κ (OP2, KOP) (Homo sapiens, UniProt P41145); experiment: Eurofins radioligand binding
Thyroid Hormone = experiment: Eurofins radioligand binding; design: species or system Rat
Adrenergic α1A = Adrenergic α1A (Homo sapiens, UniProt P35348); experiment: Eurofins radioligand binding
[4] = target: Leukotriene, Cysteinyl CysLT1 (Homo sapiens, UniProt Q9Y271); experiment: Eurofins radioligand binding
Sodium Channel, Site 2 = experiment: Eurofins radioligand binding; design: species or system Rat
Adrenergic α1D = Adrenergic α1D (Homo sapiens, UniProt P25100); experiment: Eurofins radioligand binding
Transporter, GABA = Transporter, GABA (Rattus norvegicus, UniProt P23978); experiment: Eurofins radioligand binding
CYP 3A4 = CYP 3A4 (Homo sapiens, UniProt P08684); design: method as in PMID 39660766; conditions: in words; cited from earlier work
Sequence of CYP 3A4 (P08684 whole entry): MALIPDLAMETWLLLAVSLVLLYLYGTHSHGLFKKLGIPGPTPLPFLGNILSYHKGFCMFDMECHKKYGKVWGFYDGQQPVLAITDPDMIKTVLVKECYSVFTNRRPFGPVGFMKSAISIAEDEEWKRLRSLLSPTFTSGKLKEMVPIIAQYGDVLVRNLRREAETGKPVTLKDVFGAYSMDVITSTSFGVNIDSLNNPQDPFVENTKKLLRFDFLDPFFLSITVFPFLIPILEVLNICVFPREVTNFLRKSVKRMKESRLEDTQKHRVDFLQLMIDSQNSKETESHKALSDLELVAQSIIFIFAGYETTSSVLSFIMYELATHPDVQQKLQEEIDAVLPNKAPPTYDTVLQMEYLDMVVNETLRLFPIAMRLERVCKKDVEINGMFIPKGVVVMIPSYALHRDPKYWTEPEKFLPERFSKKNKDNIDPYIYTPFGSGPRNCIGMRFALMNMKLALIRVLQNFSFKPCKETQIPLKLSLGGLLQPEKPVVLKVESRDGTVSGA

Sequence of Opiate κ (OP2, KOP) (P41145 whole entry): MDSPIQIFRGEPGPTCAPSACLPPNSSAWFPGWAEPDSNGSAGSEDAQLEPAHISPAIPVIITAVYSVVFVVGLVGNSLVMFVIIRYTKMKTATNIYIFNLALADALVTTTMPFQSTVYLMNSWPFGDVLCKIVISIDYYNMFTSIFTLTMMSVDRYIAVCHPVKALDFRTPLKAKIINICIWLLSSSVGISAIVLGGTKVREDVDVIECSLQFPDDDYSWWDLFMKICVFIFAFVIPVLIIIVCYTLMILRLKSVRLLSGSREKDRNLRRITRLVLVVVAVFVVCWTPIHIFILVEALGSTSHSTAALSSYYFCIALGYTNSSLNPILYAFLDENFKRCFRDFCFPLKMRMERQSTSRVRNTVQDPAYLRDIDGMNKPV
Sequence of Dopamine D1 (P21728 whole entry): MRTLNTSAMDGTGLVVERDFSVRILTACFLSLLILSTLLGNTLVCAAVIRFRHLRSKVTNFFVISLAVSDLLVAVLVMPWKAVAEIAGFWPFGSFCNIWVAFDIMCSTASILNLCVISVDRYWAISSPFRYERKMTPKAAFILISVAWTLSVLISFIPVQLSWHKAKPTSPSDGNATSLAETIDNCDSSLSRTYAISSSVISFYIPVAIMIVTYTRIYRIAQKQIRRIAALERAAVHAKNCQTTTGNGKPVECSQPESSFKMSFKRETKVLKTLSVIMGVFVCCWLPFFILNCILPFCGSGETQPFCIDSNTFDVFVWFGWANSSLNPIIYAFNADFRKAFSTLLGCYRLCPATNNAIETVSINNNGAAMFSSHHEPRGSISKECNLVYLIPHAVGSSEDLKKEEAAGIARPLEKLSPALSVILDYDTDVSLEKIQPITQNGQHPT
Sequence of Neuropeptide Y Y1 (P25929 whole entry): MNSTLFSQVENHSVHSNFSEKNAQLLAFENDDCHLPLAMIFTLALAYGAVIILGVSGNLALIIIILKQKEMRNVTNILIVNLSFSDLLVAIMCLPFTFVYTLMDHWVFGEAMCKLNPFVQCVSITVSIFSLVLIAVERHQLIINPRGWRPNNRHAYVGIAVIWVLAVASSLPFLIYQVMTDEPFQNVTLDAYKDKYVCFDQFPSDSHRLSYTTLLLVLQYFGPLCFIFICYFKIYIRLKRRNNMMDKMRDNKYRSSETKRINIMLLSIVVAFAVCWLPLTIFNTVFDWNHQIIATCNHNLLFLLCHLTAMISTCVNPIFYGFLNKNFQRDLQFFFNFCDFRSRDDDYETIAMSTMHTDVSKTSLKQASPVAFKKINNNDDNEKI
Sequence of Adrenergic α1A (P35348 whole entry): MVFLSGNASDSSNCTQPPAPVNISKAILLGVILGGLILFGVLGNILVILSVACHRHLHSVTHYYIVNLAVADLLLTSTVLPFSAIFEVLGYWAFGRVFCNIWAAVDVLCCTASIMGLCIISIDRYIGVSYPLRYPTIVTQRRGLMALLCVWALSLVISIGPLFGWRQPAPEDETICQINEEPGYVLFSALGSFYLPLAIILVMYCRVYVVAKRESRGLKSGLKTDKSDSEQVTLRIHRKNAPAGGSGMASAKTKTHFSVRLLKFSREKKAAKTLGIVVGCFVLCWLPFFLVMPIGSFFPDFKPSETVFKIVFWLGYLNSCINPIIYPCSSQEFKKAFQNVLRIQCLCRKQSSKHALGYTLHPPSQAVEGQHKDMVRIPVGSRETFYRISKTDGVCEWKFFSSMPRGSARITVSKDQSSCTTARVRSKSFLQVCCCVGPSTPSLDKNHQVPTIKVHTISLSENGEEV
Sequence of Leukotriene, Cysteinyl CysLT1 (Q9Y271 whole entry): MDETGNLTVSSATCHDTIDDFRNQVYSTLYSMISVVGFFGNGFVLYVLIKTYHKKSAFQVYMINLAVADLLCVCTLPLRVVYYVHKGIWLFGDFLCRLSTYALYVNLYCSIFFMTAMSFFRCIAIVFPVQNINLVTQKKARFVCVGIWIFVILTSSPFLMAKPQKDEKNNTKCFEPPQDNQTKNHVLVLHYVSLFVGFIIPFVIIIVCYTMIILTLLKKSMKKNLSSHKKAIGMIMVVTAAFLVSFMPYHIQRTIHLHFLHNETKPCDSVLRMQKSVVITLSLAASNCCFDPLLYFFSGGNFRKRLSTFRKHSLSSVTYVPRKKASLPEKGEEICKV
Sequence of Adrenergic β1 (P08588 whole entry): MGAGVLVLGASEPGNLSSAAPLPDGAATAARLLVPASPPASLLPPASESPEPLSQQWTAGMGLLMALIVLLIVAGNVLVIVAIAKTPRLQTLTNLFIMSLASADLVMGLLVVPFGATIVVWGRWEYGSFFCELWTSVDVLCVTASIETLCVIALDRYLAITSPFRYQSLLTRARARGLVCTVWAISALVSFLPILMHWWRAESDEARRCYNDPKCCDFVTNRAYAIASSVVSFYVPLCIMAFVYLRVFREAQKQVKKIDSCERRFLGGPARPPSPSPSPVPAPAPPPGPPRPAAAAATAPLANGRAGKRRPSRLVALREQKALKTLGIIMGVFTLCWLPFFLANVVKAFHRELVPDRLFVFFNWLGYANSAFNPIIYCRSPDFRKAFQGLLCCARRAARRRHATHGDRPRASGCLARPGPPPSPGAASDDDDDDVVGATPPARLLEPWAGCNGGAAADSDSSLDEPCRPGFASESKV
Sequence of Histamine H1 (P35367 whole entry): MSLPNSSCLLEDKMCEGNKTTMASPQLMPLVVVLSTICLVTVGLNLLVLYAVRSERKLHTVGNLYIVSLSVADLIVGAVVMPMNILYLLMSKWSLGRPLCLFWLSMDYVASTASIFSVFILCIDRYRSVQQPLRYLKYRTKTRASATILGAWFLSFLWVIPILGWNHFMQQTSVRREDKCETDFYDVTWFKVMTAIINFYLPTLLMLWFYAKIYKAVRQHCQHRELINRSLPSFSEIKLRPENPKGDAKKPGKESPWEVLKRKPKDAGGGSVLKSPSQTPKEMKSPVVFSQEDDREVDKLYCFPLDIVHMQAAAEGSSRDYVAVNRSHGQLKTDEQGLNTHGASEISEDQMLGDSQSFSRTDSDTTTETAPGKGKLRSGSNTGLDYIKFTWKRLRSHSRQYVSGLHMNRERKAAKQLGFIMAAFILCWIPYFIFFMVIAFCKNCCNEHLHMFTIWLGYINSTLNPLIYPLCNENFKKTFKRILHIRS
Sequence of Histamine H2 (P25021 whole entry): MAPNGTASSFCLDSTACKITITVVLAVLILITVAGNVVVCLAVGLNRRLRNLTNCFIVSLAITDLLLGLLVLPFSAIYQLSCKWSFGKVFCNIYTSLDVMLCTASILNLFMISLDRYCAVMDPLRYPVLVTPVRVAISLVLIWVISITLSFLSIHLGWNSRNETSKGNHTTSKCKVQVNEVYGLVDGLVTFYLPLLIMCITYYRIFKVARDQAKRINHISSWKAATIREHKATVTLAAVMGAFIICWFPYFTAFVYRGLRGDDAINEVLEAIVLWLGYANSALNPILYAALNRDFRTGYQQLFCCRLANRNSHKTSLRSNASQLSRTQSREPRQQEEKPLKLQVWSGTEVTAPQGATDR
Sequence of Adrenergic α1D (P25100 whole entry): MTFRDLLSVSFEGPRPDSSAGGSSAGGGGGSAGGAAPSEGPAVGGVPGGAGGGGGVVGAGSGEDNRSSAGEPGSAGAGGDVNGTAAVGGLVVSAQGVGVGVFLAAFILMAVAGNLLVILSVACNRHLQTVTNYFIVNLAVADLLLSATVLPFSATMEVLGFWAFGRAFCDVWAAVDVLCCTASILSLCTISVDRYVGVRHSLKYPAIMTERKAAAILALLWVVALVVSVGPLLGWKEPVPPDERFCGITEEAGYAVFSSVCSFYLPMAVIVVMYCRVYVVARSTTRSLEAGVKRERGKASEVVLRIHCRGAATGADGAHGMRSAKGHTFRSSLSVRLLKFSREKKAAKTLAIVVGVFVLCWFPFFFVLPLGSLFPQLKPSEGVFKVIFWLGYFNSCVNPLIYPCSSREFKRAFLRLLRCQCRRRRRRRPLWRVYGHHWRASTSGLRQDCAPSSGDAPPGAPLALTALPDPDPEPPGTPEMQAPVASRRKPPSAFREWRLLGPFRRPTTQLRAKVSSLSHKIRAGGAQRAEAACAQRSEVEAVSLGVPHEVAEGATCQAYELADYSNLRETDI

## [2H]C1([2H])c2ncccc2C(=O)N1Cc1c(F)cc(-c2cccc3nn(C([2H])([2H])[2H])cc23)cc1F [compound 5]
Histamine H1
  inhibition at 10 µM: 2%
[1]; 3 mg/kg
  AUC(0-t): 8390 ng·h/mL
  Cmax: 1250 ng/mL
[1]; 10 mg/kg
  AUC(0-t): 23900 ng·h/mL
  Cmax: 3380 ng/mL
[1]; 30 mg/kg
  AUC(0-t): 55600 ng·h/mL
  Cmax: 6020 ng/mL
[1]; 100 mg/kg
  AUC(0-t): 87800 ng·h/mL
  Cmax: 7850 ng/mL
[1]; rat oral dose escalation 3-100 mg/kg
  cholinergic signs or adverse events: no cholinergic signs or adverse events were noted
[2]
  activity in Eurofins lead profiling screen, whole panel: no significant activity
Dopamine D1
  inhibition at 10 µM: -3%
Neuropeptide Y Y1
  inhibition at 10 µM: -13%
Purinergic P2X
  % Inhibition at 10 µM: 4%
Seizure activity
  Racine score: 1
Histamine H2
  inhibition at 10 µM: 2%
Adrenergic β1
  inhibition at 10 µM: 2%
[3]
  % Inhibition at 10 µM: 6%
Opiate κ (OP2, KOP)
  inhibition at 10 µM: 9%
Thyroid Hormone
  % Inhibition at 10 µM: 0%
Adrenergic α1A
  inhibition at 10 µM: 8%
[4]
  inhibition at 10 µM: -9%
Sodium Channel, Site 2
  % Inhibition at 10 µM: 14%
Adrenergic α1D
  inhibition at 10 µM: -15%
Transporter, GABA
  inhibition at 10 µM: 31%

## Cn1cc2c(-c3cc(F)c(CN4Cc5ncccc5C4=O)c(F)c3)cccc2n1 [compound 1]
CYP 3A4
  CYP isoform responsible for metabolism: solely metabolized by CYP 3A4
